Data taken from patent US20090258883A1, “1H-Indole-Pyridinecarboxamide and 1H-Indole-Piperidinecarboxamide Compounds” (LES LABORATOIRES SERVIER, priority 2005, published 2009).
Marks after values point to notes of the source that are not given here.

Key:
[1] = target: dopaminergic receptors (type D2) (Homo sapiens, UniProt P14416); assay: Affinity for receptors, displacement of labelled specific ligand: D2; type: binding
[2] = test system: sigma (σ) receptors (ligand: haloperidol); assay: Affinity for receptors, displacement of labelled specific ligand: sigma; type: binding; settings: concentration 10^−5 M
Description: (§1) The affinity for receptors is determined according to customary methods of relations between the specific ligand and the receptor, which may be of animal origin or a human recombinant. The affinity was determined by the method of displacement of the labelled specific ligand by the compound under test and expressed by the dissociation constant KI. The receptor affinity was accordingly studied for 28 conventional receptors.

[3] = target: 5HT receptors (type 5HT2A) (Homo sapiens, UniProt P28223); assay: Affinity for receptors, displacement of labelled specific ligand: 5HT2A; type: binding
muscarinic (M) receptors = assay: Affinity for receptors, displacement of labelled specific ligand: muscarinic; type: binding
Description: as §1

[4] = Predicted metabolic stability, human hepatic microsomes; type: in vitro ADME; settings: 10^−7 M, human hepatic microsomes 0.33 mg of prot/ml, NADPH
Description: (§2) The predicted metabolic stability is tested by incubation of the compounds at a concentration of 10^−7M in the presence of mouse, rat or human hepatic microsomes (0.33 mg of prot/ml). After addition of NADPH (nicotinamide adenine dinucleotide phosphate, reduced form), samples are taken at 0, 5, 15, 30 and 60 minutes. The enzymatic reaction is stopped using methanol (V/V). The protein is precipitated by centrifugation and the supernatant is analysed by LC-MS-MS.

[5] = Predicted metabolic stability, mouse hepatic microsomes; type: in vitro ADME; settings: 10^−7 M, mouse hepatic microsomes 0.33 mg of prot/ml, NADPH
Description: as §2

[6] = test system: tyrosine hydroxylase (TH) protein; assay: Induction of tyrosine hydroxylase (TH) in LC, SN and VTA of the mouse brain; type: in vivo, Balb/C mouse; settings: three days after single injection, relative to mean value of control group
Text: A search is made among the compounds for those which are capable of bringing about an increase in the tyrosine hydroxylase (TH) protein in the locus coeruleus (LC), substantia nigra (SN) and ventral tegmental area (VTA) of the brain of the Balb/C mouse. The animals used are consanguinal male mice of the pure Balb/C strain (Charles River Laboratories) aged 6 weeks at the time of treatment.
The mice are given a single injection, by the intraperitoneal route, of the compound under test, dissolved in 0.04M HCl solution (corresponding control: 0.04M HCl), if the compound is sufficiently soluble, or in olive oil 90%/DMSO 10% (corresponding control: olive oil 90%/DMSO 10%) for compounds that are insoluble in an aqueous medium. The volume injected is 100 μl. The test groups comprise 10 animals.
Three days after the injection of each compound, all the animals are sacrificed by decapitation. The brains are removed and then frozen in an isopentane solution at −30° C. for 45 seconds and subsequently stored at −80° C.
Serial coronal sections 20 microns thick are then taken using a cryomicrotome. Each structure of interest is then sampled along the posterior-anterior axis of the brain by taking sections at 80-micron spacings in the case of the LC and at 80- or 160-micron spacings in the case of the VTA and SN. The limits of those structures are those described in the atlas of Franklin and Paxinos. The total proteins of each of those sections are transferred by direct collection of the sections to a nitrocellulose filter (Millipore). The amounts of TH present in each sample are measured by immunochemistry, fluorimetric detection and image analysis.

[7] = target: dopaminergic receptors (type D1) (Homo sapiens, UniProt P21728); assay: Affinity for receptors, displacement of labelled specific ligand: D1; type: binding
[8] = Predicted metabolic stability, rat hepatic microsomes; type: in vitro ADME; settings: 10^−7 M, rat hepatic microsomes 0.33 mg of prot/ml, NADPH
Description: as §2

Chain of 5HT receptors (type 5HT2A) (P28223 whole entry): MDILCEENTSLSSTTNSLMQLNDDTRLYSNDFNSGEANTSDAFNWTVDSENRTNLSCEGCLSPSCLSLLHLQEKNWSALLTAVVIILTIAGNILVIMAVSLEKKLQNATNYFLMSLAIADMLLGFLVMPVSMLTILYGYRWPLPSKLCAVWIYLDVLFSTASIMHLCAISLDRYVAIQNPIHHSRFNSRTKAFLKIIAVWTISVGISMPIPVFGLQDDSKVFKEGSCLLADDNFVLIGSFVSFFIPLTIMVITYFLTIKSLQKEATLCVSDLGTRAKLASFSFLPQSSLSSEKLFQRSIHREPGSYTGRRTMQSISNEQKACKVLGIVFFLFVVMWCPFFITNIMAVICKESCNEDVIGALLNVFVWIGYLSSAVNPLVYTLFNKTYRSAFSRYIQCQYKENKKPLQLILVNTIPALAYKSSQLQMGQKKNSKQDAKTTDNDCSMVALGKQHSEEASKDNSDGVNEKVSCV
Chain of dopaminergic receptors (type D1) (P21728 whole entry): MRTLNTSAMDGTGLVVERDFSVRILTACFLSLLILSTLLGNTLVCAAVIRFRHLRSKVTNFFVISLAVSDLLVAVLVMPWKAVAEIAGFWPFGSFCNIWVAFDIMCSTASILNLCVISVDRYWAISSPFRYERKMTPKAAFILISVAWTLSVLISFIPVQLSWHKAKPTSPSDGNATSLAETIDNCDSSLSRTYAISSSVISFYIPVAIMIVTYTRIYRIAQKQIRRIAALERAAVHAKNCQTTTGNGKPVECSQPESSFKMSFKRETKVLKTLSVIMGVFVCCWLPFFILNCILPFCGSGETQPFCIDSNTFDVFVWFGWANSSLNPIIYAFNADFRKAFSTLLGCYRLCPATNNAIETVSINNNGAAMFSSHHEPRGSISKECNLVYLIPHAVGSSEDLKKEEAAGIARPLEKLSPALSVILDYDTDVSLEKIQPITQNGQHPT
Chain of dopaminergic receptors (type D2) (P14416 whole entry): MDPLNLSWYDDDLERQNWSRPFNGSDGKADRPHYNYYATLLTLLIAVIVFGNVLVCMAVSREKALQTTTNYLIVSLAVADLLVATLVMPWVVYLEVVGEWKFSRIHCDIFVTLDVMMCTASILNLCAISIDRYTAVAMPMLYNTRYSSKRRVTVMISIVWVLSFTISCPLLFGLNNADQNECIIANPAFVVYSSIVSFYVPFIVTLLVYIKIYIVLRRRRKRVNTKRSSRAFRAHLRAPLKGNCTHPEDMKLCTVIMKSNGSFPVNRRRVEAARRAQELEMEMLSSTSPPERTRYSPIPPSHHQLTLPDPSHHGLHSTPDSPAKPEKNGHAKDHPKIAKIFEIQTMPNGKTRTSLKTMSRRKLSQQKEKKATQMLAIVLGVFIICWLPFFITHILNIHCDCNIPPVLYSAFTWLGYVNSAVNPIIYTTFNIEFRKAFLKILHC

In the case of CN1CCN(CCN2CCC=C(C(=O)Nn3ccc4cc(Cl)ccc43)C2)CC1 [Example 47, N-(5-Chloroindol-1-yl)-1-[2-(4-methylpiperazin-1-yl)ethyl]-1,2,5,6-tetrahydropyridine-3-carboxamide], the inhibition at 10 µM ([1]; concentration 10^−5 M) is reported as under 10%, the inhibition at 0.1 µM ([1]; concentration 10^−7 M) is reported as under 10% and the “% inhibition σ” value [2] is reported as 67%. The inhibition at 10 µM ([3]; concentration 10^−5 M) was 15%, the inhibition at 0.1 µM ([3]; concentration 10^−7 M) was 10% and the “% inhibition M” value (muscarinic (M) receptors; concentration 10^−5 M) was 10%. For the same compound, the “% inhibition M” value (muscarinic (M) receptors; concentration 10^−7 M) was 19%, the “% metabolic stability predicted using hepatic microsomes, Human” value [4] was 78% and the “% metabolic stability predicted using hepatic microsomes, Mouse” value [5] was 53%. For the same compound, the “amount of TH in LC section 1” value ([6]; LC section 1 (posterior-to-anterior), i.p. 20 mg/kg) was 232** %, the “amount of TH in LC section 2” value ([6]; LC section 2, i.p. 20 mg/kg) was 138* % and the “amount of TH in LC section 3” value ([6]; LC section 3, i.p. 20 mg/kg) was 176** %. For the same compound, the “amount of TH in LC section 4” value ([6]; LC section 4, i.p. 20 mg/kg) was 179** %, the “amount of TH in LC section 5” value ([6]; LC section 5, i.p. 20 mg/kg) was 172** % and the “amount of TH in LC section 6” value ([6]; LC section 6, i.p. 20 mg/kg) was 169** %. The “amount of TH in LC section 7” value ([6]; LC section 7, i.p. 20 mg/kg) was 153** %, the “amount of TH in LC section 8” value ([6]; LC section 8, i.p. 20 mg/kg) was 140** % and the “amount of TH in LC section 9” value ([6]; LC section 9, i.p. 20 mg/kg) was 84* %. For the same compound, the “amount of TH in LC section 10” value ([6]; LC section 10, i.p. 20 mg/kg) was 88%, the “amount of TH in LC section 11” value ([6]; LC section 11, i.p. 20 mg/kg) was 127% and the “amount of TH, LC, total” value ([6]; LC total, i.p. 20 mg/kg) was 147** %. For the same compound, the inhibition at 10 µM ([7]; concentration 10^−5 M) was under 10%, the inhibition at 0.1 µM ([7]; concentration 10^−7 M) was under 10% and the “% metabolic stability predicted using hepatic microsomes, Rat” value [8] was 87%.
